Data from publication PMC9389804 (Journal of Hematology & Oncology, 2022).
Where “and” joins values, the source holds several entries; their conditions need not be identical. Identical values can stand only once.

Test: safety assessments (adverse events, NCI CTCAE)
Details: for Treatment-related cardiovascular events: G 3/4
[1] = AE resulting in dose interruption, Total n=165
[2] = AE resulting in dose reduction, Accelerated phase n=38
[3] = AE resulting in dose reduction, Chronic phase n=127
[4] = AE resulting in dose reduction, Total n=165
[5] = AE resulting in treatment discontinuation, Accelerated phase n=38
[6] = AE resulting in treatment discontinuation, Chronic phase n=127
[7] = AE resulting in treatment discontinuation, Total n=165
[8] = CVE possibly related to olverembatinib, all 165 patients
[9] = CVEs possibly related to olverembatinib

Procedure: Adverse events were assessed continuously and graded according to NCI CTCAE v5.0.18. Complete blood count with differential, serum chemistries, and physical examinations were performed before the study; weekly during Cycles 1 and 2; on alternate weeks in Cycles 3 and 4; and monthly thereafter.

Cc1ccc(C(=O)Nc2ccc(CN3CCN(C)CC3)c(C(F)(F)F)c2)cc1C#Cc1cnc2[nH]ncc2c1 [olverembatinib]
3.0%: Atrial fibrillation [8] | Supraventricular extrasystoles [8]
10 (26.3) n (%): Hematologic adverse events [2]
5 (3.9) n (%): Nonhaematologic [6]
2 (1.6) n (%): Anemia [3] | Increased creatine phosphokinase [3] | Neutropenia [3] | Retinal-vein occlusion [3]
3 (1.8) n (%): Pyrexia [1] | Anemia [4] | Neutropenia [4]
28 (73.7%) n (%) and 28 (73.7) n (%): Adverse events resulting in dose interruption (Accelerated phase n=38)
5 (13.2) n (%): Nonhaematologic [2]
4 (3.1) n (%): Hematologic [6]
1 (0.8) n (%): Acute coronary syndrome [3] | Arteriosclerosis coronary artery [3] | Asthenia [3] | Cerebral infarction [3] | Chest discomfort [3] | Dyspnea [3] | Electrocardiogram QT prolonged [3] | Glaucoma [3] | Hyperbilirubinaemia [3] | Hyperglycaemia [3] | Hypertriglyceridaemia [3] | Proteinuria [3] | Subileus [3] | Acute myocardial infarction [6] | Breast cancer [6] | Febrile neutropenia [6] | Lacunar infarction [6] | Proteinuria [6] | Retinal-vein occlusion [6]
1.2%: Palpitations [8]
4.2%: Ventricular extrasystoles [8]
30 (18.2) n (%): Hematologic adverse events [4]
9 (7.1) n (%): Adverse events resulting in treatment discontinuation (Chronic phase n=127)
59 (35.8) n (%): Thrombocytopenia [1]
26 (15.8) n (%): Thrombocytopenia [4]
4 (10.5) n (%): Adverse events resulting in treatment discontinuation (Accelerated phase n=38) | Treatment-related cardiovascular events (Accelerated phase n=38)
11.5%: G3/4 cardiovascular events [9]
0 n (%): Acute coronary syndrome [2] | Arteriosclerosis coronary artery [2] | Asthenia [2] | Cerebral infarction [2] | Chest discomfort [2] | Dyspnea [2] | Electrocardiogram QT prolonged [2] | Glaucoma [2] | Hypertriglyceridaemia [2] | Increased creatine phosphokinase [2] | Proteinuria [2] | Retinal-vein occlusion [2] | Subileus [2] | Arthralgia [3] | Atrial fibrillation [3] | Hypokalemia [3] | Leukopenia [3] | Seronegative arthritis [3] | Acute myocardial infarction [5] | Breast cancer [5] | Febrile neutropenia [5] | Lacunar infarction [5] | Proteinuria [5] | Retinal-vein occlusion [5] | Pericardial effusion [6]
1 (2.6) n (%): Anemia [2] | Arthralgia [2] | Atrial fibrillation [2] | Hyperbilirubinaemia [2] | Hyperglycaemia [2] | Hypokalemia [2] | Neutropenia [2] | Seronegative arthritis [2] | Nonhaematologic [5] | Pericardial effusion [5]
19 (15) n (%): Thrombocytopenia [3]
16 (12.6) n (%): Nonhaematologic [3]
7 (18.4) n (%): Thrombocytopenia [2]
8.5%: Pericardial effusion [8]
19 (11.5) n (%): Treatment-related cardiovascular events (Total n=165)
1.8%: Retinal-vein occlusion [8]
7 (4.2) n (%): Hematologic [7]
11 months: median time on treatment to cardiovascular events (CVEs) [9]
20 (15.7) n (%): Hematologic adverse events [3]
2 (1.2) n (%): Pneumonia [1] | Sinus tachycardia [1] | Upper-respiratory-tract infection [1] | Hyperbilirubinaemia [4] | Hyperglycaemia [4] | Increased creatine phosphokinase [4] | Leukopenia [4] | Retinal-vein occlusion [4]
5 (3.0) n (%): Neutropenia [1]
58 (45.7%) n (%) and 58 (45.7) n (%): Adverse events resulting in dose interruption (Chronic phase n=127)
36 (28.3%) n (%) and 36 (28.3) n (%): Adverse events resulting in dose reduction (Chronic phase n=127)
21 (12.7) n (%): Nonhaematologic [4]
14 (36.8%) n (%) and 14 (36.8) n (%): Adverse events resulting in dose reduction (Accelerated phase n=38)
3 (2.4) n (%): Thrombocytopenia [6]
3 (7.9) n (%): Hematologic [5] | Thrombocytopenia [5]
6 (3.6) n (%): Nonhaematologic [7] | Thrombocytopenia [7]
1 (0.6) n (%): Musculoskeletal pain [1] | Myocardial strain [1] | Pain [1] | Pain in extremity [1] | Pericardial effusion [1] | Peripheral swelling [1] | Proteinuria [1] | Pulmonary arterial hypertension [1] | Pulmonary tuberculosis [1] | Rash [1] | Refraction disorder [1] | Sinus bradycardia [1] | Skin mass [1] | Superior mesenteric artery syndrome [1] | Supraventricular extrasystoles [1] | Swelling [1] | Urinary sediment present [1] | Acute coronary syndrome [4] | Arteriosclerosis coronary artery [4] | Arthralgia [4] | Asthenia [4] | Atrial fibrillation [4] | Cerebral infarction [4] | Chest discomfort [4] | Dyspnea [4] | Electrocardiogram QT prolonged [4] | Glaucoma [4] | Hypertriglyceridaemia [4] | Hypokalemia [4] | Proteinuria [4] | Seronegative arthritis [4] | Subileus [4] | Acute myocardial infarction [7] | Breast cancer [7] | Febrile neutropenia [7] | Lacunar infarction [7] | Pericardial effusion [7] | Proteinuria [7] | Retinal-vein occlusion [7]
15 (11.8) n (%): Treatment-related cardiovascular events (Chronic phase n=127)
48 (29.1) n (%): Nonhematologic [1]
2 (5.3) n (%): Leukopenia [2]
< 1%: angina pectoris, arrhythmia, atrial tachycardia, cardiomegaly, cerebral ischemia, and/or cerebral infarction [8]
